# Test results: patent US9137998B2, “Pesticidal compositions and related methods” (DOW AGROSCIENCES LLC, priority 2013, dated 2015)
# Legend:
# [1] = tested on: Green Peach Aphid (Myzus persicae) (GPA) (MYZUPE); assay: Bioassay for Green Peach Aphid (GPA), foliar spray on cabbage seedlings; format: in vivo; details: Myzus persicae, 72 h, 200 ppm foliar spray, graded after three days, Abbott corrected % control, read-out: % Control (or Mortality) rating, GPA
# Procedure: Cabbage seedlings grown in 3-inch pots, with 2-3 small (3-5 cm) true leaves, were used as test substrate. The seedlings were infested with 20-50 GPA (wingless adult and nymph stages) one day prior to chemical application. Four pots with individual seedlings were used for each treatment. Test compounds (2 mg) were dissolved in 2 mL of acetone/methanol (1:1) solvent, forming stock solutions of 1000 ppm test compound. The stock solutions were diluted 5× with 0.025% Tween 20 in H2O to obtain the solution at 200 ppm test compound. A hand-held aspirator-type sprayer was used for spraying a solution to both sides of […] leaves until runoff. Reference plants (solvent check) were sprayed with the diluent only containing 20% by volume of acetone/methanol (1:1) solvent. Treated plants were held in a holding room for three days at approximately 25° C. and ambient relative humidity (RH) prior to grading. Evaluation was conducted by counting the number of live aphids per plant under a microscope. Percent control was measured by using Abbott's correction formula (W. S. Abbott, “A Method of Computing the Effectiveness of an Insecticide” J. Econ. Entomol. 18 (1925), pp. 265-267) as follows. Corrected % Control=100*(X−Y)/X
# X=No. of live aphids on solvent check plants and
# Y=No. of live aphids on treated plants
# Biological Data for Green Peach Aphid (GPA) (MYZUPE) and Sweetpotato Whitefly-crawler (WF) (BEMITA)” (See Table Section).
# [2] = tested on: Sweetpotato Whitefly-Crawler (Bemisia tabaci) (WF) (BEMITA); assay: Insecticidal test for Sweetpotato Whitefly-crawler (WF) in foliar spray assay on cotton plants; format: in vivo; details: Bemisia tabaci, 216 h, 200 ppm foliar spray, graded after 9 days, Abbott corrected % control, read-out: % Control (or Mortality) rating, WF
# Procedure: Cotton plants (Gossypium hirsutum) grown in 3-inch pots, with 1 small (4-5 cm) true leaves, were used as test substrate. The plants were infested with 200-400 whitefly eggs 4-5 days prior to chemical application. Four pots with individual plants were used for each treatment. Test compounds (2 mg) were dissolved in 1 mL of acetone solvent, forming stock solutions of 2000 ppm test compound. The stock solutions were diluted 10× with 0.025% Tween 20 in H2O (diluents) to obtain the solution at 200 ppm test compound. A hand-held aspirator-type sprayer was used for spraying a solution to both sides of cotton leaves until runoff. Reference plants (solvent check) were sprayed with the diluent only containing 10% by volume of acetone solvent. Treated plants were held in a holding room for 9 days at approximately 25° C. and ambient relative humidity (RH) prior to grading. Evaluation was conducted by counting the number of live 3-4 nymph stage per plant under a microscope. Percent control was measured by using Abbott's correction formula (W. S. Abbott, “A Method of Computing the Effectiveness of an Insecticide” J. Econ. Entomol. 18 (1925), pp. 265-26′7) as follows. Corrected % Control=100*(X−Y)/X
# X=No. of live nymphs on solvent check plants and
# Y=No. of live nymphs on treated plants. […]
SMILES,melting point,mortality at 200 ppm [1],mortality at 200 ppm [2]
"C#CCN(C(=O)OC(C)(C)C)c1sc(Br)nc1C [CA4, tert-Butyl (2-bromo-4-methylthiazol-5-yl)(prop-2-yn-1-yl)carbamate]",82 to 86 °C,–,–
"C#CCN(C(=O)OC(C)(C)C)c1sc(-c2cncnc2)nc1Cl [CA10, tert-Butyl (4-chloro-2-(pyrimidin-5-yl)thiazol-5-yl)(prop-2-yn-1-yl) carbamate]",80 to 83 °C,–,–
"C#CCN(C(=O)CCS(=O)(=O)CCC(F)(F)F)c1sc(-c2cccnc2)nc1Cl [FA10, N-(4-chloro-2-(pyridin-3-yl)thiazol-5-yl)-N-(prop-2-yn-1-yl)-3-((3,3,3-trifluoropropyl)sulfonyl)propanamide]",–,80 to 100%,80 to 100%
"C#CCN(C(=O)CC[S+](C)[O-])c1sc(-c2cccnc2)nc1C (stereo not drawn) [Compound P3, N-(4-Methyl-2-(pyridin-3-yl)thiazol-5-yl)-3-(methylsulfinyl)-N-(prop-2-yn-1-yl)propanamide]",–,80 to 100%,80 to 100%
"C#CCN(C(=O)C(C)CSC)c1sc(-c2cccnc2)nc1Cl (stereo not drawn) [Compound F9, N-(4-chloro-2-(pyridin-3-yl)thiazol-5-yl)-2-methyl-3-(methylthio)-N-(prop-2-yn-1-yl)propanamide]",–,80 to 100%,80 to 100%
"C#CCN(C(=O)C1CC1)c1sc(-c2cccnc2)nc1Cl [Compound F2, N-(4-Chloro-2-(pyridin-3-yl)thiazol-5-yl)-N-(prop-2-yn-1-yl)cyclopropane carboxamide]",–,80 to 100%,80 to 100%
"C#CC(C)N(C(=O)CCSCC1CC1(F)F)c1sc(-c2cccnc2)nc1C (stereo not drawn) [Compound P31, N-(But-3-yn-2-yl)-3-(((2,2-difluorocyclopropyl)methyl)thio)-N-(4-methyl-2-(pyridin-3-yl)thiazol-5-yl)propanamide]",–,80 to 100%,80 to 100%
"C#CC(C)N(C(=O)OC(C)(C)C)c1sc(-c2cccnc2)nc1C (stereo not drawn) [CA12, tert-Butyl but-3-yn-2-yl(4-methyl-2-(pyridin-3-yl)thiazol-5-yl)carbamate]",–,80 to 100%,80 to 100%
"C#CCN(C(=O)CCS(=O)(=O)CCC(F)(F)F)c1sc(-c2cccnc2)nc1C [Compound P8, N-(4-Methyl-2-(pyridin-3-yl)thiazol-5-yl)-N-(prop-2-yn-1-yl)-3-((3,3,3-trifluoropropyl)sulfonyl) propanamide]",–,80 to 100%,80 to 100%
"C#CCN(C(=O)CC(SC)C(F)(F)F)c1sc(-c2cccnc2)nc1Cl (stereo not drawn) [Compound F3, N-(4-Chloro-2-(pyridin-3-yl)thiazol-5-yl)-4,4,4-trifluoro-3-(methylthio)-N-(prop-2-yn-1-yl) butanamide]",–,80 to 100%,80 to 100%
"CC#CCN(C(=O)CCSC)c1sc(-c2cccnc2)nc1C [Compound P17, N-(But-2-yn-1-yl)-N-(4-methyl-2-(pyridin-3-yl)thiazol-5-yl)-3-(methylthio)propanamide]",–,80 to 100%,80 to 100%
"C#CC(C)N(C(=O)OC(C)(C)C)c1sc(Br)nc1C (stereo not drawn) [CA5, tert-butyl (2-bromo-4-methylthiazol-5-yl)(but-3-yn-2-yl)carbamate]",–,0 to 80%,0 to 80%
"C#CCN(C(=O)CCS(C)(=O)=O)c1sc(-c2cccnc2)nc1C [Compound P4, N-(4-Methyl-2-(pyridin-3-yl)thiazol-5-yl)-3-(methylsulfonyl)-N-(prop-2-yn-1-yl)propanamide]",–,80 to 100%,80 to 100%
"C#CCN(C(=O)CCS(=O)(=O)CCC(F)(F)F)c1sc(-c2cncnc2)nc1Cl [FA12, N-(4-Chloro-2-(pyrimidin-5-yl)thiazol-5-yl)-N-(prop-2-yn-1-yl)-3-((3,3,3-trifluoropropyl)sulfonyl) propanamide]",–,80 to 100%,80 to 100%
"C#CCN(C(=O)CCSCCC(F)(F)F)c1sc(-c2cncnc2)nc1Cl [FA3, N-(4-chloro-2-(pyrimidin-5-yl)thiazol-5-yl)-N-(prop-2-yn-1-yl)-3-((3,3,3-trifluoropropyl)thio)propanamide]",–,80 to 100%,80 to 100%
"C#CCN(C(=O)OC(C)(C)C)c1sc(-c2cccnc2)nc1C [CA7, tert-Butyl (4-methyl-2-(pyridin-3-yl)thiazol-5-yl)(prop-2-yn-1-yl) carbamate]",–,80 to 100%,80 to 100%
"C#CCN(C(=O)C(C)SC)c1sc(-c2cccnc2)nc1Cl (stereo not drawn) [Compound F6, N-(4-chloro-2-(pyridin-3-yl)thiazol-5-yl)-2-(methylthio)-N-(prop-2-yn-1-yl)propanamide]",–,80 to 100%,80 to 100%
"C#CCN(C(=O)CCSC)c1sc(-c2cccnc2)nc1Cl [Compound F7, N-(4-chloro-2-(pyridin-3-yl)thiazol-5-yl)-3-(methylthio)-N-(prop-2-yn-1-yl)propanamide]",–,80 to 100%,80 to 100%
"C#CCN(C(=O)CCSCC1CC1(F)F)c1sc(-c2cccnc2)nc1C (stereo not drawn) [Compound P10, 3-(((2,2-Difluorocyclopropyl)methyl)thio)-N-(4-methyl-2-(pyridin-3-yl)thiazol-5-yl)-N-(prop-2-yn-1-yl)propanamide]",–,80 to 100%,80 to 100%
"C#CCN(C(=O)CC[S+]([O-])CCC(F)(F)F)c1sc(-c2cncnc2)nc1Cl (stereo not drawn) [FA8, N-(4-Chloro-2-(pyrimidin-5-yl)thiazol-5-yl)-N-(prop-2-yn-1-yl)-3-((3,3,3-trifluoropropyl)sulfinyl)propanamide]",–,80 to 100%,80 to 100%
"C#CCN(C(=O)CSC)c1sc(-c2cccnc2)nc1Cl [Compound F4, N-(4-Chloro-2-(pyridin-3-yl)thiazol-5-yl)-2-(methylthio)-N-(prop-2-yn-1-yl)acetamide]",–,80 to 100%,80 to 100%
"C#CCN(C(=O)CCSCCC(F)(F)F)c1sc(-c2cccnc2)nc1Cl [FA1, N-(4-Chloro-2-(pyridin-3-yl)thiazol-5-yl)-N-(prop-2-yn-1-yl)-3-((3,3,3-trifluoropropyl)thio) propanamide]",–,80 to 100%,80 to 100%
